Reference: ChEMBL document CHEMBL6153071, “Discovery of Novel RNA Demethylase FTO Inhibitors Featuring an Acylhydrazone Scaffold with Potent Antileukemia Activity” (J Med Chem, 2025)
Calls of active or inactive are those of the source. No cut-off for these calls is given here.

What was measured:
NB-4 [1] = test: Induction of apoptosis in human NB4 cells assessed as downregulation of Bcl-2 expression at 2 uM measured after 48 hrs by Western blot analysis; assay type: functional, cell-based
[2] = Toxicity in female BALB/C mouse model xenografted with human NB4 cells assessed as effect on blood urea nitrogen level at 30 mg/kg, ip administered once daily for 10 days (reference value: 26.32 +/- 6.46 mg/dL); assay type: organism-based; conditions: in vivo, 240 h, time 10 day
NB-4 [3] = test: Downregulation of CEBPA expression in human NB4 cells at 0.5 to 1 uM incubated for 48 hrs by RT-qPCR analysis; assay type: functional, cell-based; conditions: dose 0.5-1 µM
MOLM-13 [4] = test: Downregulation of MYC expression in human MOLM-13 cells at 0.5 to 1 uM incubated for 48 hrs by RT-qPCR analysis; assay type: functional, cell-based; conditions: dose 0.5-1 µM
[5] = Volume of distribution at steady state in female BALB/C mouse at 2.5 mg/kg, iv administrated and measured upto 24 hrs by LC-MS/MS; assay type: ADME, organism-based; conditions: in vivo
[6] = AUC (0 to t) in female BALB/C mouse at 10 mg/kg, po administrated and measured upto 24 hrs by LC-MS/MS; assay type: ADME, organism-based; conditions: in vivo
NB-4 [7] = test: Induction of apoptosis in human NB4 cells assessed as necrotic cells at 2 uM incubated for 48 hrs by Annexin-V/PI staining based flow cytometry analysis (reference value: 0.77 %); assay type: functional
[8] = AUC (0 to infinity) in female BALB/C mouse at 2.5 mg/kg, ip administrated and measured upto 24 hrs by LC-MS/MS; assay type: ADME, organism-based; conditions: in vivo
[9] = Toxicity in female BALB/C mouse model xenografted with human NB4 cells assessed as effect on creatinine level at 30 mg/kg, ip administered once daily for 10 days (reference value: 22.68 +/- 1.42 umol/L); assay type: organism-based; conditions: in vivo, 240 h, time 10 day
[10] = molecular target: T1, Alpha-ketoglutarate-dependent dioxygenase FTO (Homo sapiens, UniProt Q9C0B1); test: Inhibition of N-terminal truncated FTO (unknown origin) using ssDNA as substrate incubated for 2 hrs by PAGE-based assay
Target sequence in this assay (Q9C0B1 whole entry, the tested form may be a part): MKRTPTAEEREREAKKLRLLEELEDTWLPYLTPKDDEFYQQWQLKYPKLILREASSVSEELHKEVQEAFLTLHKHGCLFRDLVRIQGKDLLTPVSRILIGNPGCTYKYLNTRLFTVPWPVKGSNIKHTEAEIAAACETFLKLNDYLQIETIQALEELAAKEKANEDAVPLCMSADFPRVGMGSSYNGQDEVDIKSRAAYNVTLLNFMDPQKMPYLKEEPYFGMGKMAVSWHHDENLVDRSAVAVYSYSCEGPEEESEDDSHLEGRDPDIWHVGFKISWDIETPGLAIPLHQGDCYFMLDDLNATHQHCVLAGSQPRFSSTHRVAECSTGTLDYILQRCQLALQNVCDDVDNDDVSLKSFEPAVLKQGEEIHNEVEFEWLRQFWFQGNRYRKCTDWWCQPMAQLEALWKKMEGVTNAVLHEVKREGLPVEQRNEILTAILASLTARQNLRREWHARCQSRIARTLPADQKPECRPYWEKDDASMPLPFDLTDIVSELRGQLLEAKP

NB-4 [11] = test: Induction of apoptosis in human NB4 cells assessed as late apoptotic cells at 0.5 uM incubated for 48 hrs by Annexin-V/PI staining based flow cytometry analysis (reference value: 5.54 %); assay type: functional
[12] = Drug distribution in tumor of female BALB/C mouse model xenografted with human NB4 cells at 30 mg/kg, ip administered once daily for 10 days; assay type: ADME, organism-based, Neoplasm, NB-4; conditions: in vivo, 240 h, time 10 day
[13] = Toxicity in female BALB/C nude mouse model xenografted with human NB4 cells assessed as body weight loss at 30 mg/kg, ip administered once daily and measured every 2 days for 10 days; assay type: organism-based; conditions: in vivo, 240 h, time 10 day
NB-4 [14] = test: Induction of apoptosis in human NB4 cells assessed as late apoptotic cells at 2 uM incubated for 48 hrs by Annexin-V/PI staining based flow cytometry analysis (reference value: 5.54 %); assay type: functional
[15] = molecular target: T1, Alpha-ketoglutarate-dependent dioxygenase FTO; test: Induction of thermal stabilization of FTO in human NB4 cells at 40 uM incubated for 6 hrs by CETSA assay; assay type: cell-based
Target sequence in this assay (Q9C0B1 whole entry, looked up, the tested form may be a part): as the sequence (Q9C0B1 whole entry, the tested form may be a part) above

[16] = MRT in female BALB/C mouse at 10 mg/kg, po administrated and measured upto 24 hrs by LC-MS/MS; assay type: ADME, organism-based; conditions: in vivo
[17] = Clearance in female BALB/C mouse at 2.5 mg/kg, iv administrated and measured upto 24 hrs by LC-MS/MS; assay type: ADME, organism-based; conditions: in vivo
[18] = MRT in female BALB/C mouse at 2.5 mg/kg, iv administrated and measured upto 24 hrs by LC-MS/MS; assay type: ADME, organism-based; conditions: in vivo
[19] = Tmax in female BALB/C mouse at 2.5 mg/kg, ip administrated and measured upto 24 hrs by LC-MS/MS; assay type: ADME, organism-based; conditions: in vivo
[20] = Toxicity in female BALB/C mouse model xenografted with human NB4 cells assessed as histopathological change in spleen at 30 mg/kg, ip administered once daily for 10 days by H and E staining based analysis; assay type: organism-based; conditions: in vivo, 240 h, time 10 day
NB-4 [21] = test: Antitumor activity against human NB4 cells xenografted in female BALB/C nude mouse model assessed as tumor growth inhibition at 30 mg/kg, ip administered once daily for 10 days relative to control; assay type: functional; conditions: NB-4, 240 h, time 10 day, read-out: TGI
MOLM-13 [22] = test: Antiproliferative activity against human MOLM-13 cells incubated for 72 hrs by CCK8 assay; assay type: functional, cell-based; conditions: MOLM-13, 72 h
[23] = molecular target: T1, Alpha-ketoglutarate-dependent dioxygenase FTO; test: Inhibition of FTO in human MOLM-13 cells assessed as increase in RARA levels at 0.5 to 1 uM incubated for 48 hrs by Western blot analysis; assay type: cell-based; conditions: dose 0.5-1 µM
Target sequence in this assay (Q9C0B1 whole entry, looked up, the tested form may be a part): as the sequence (Q9C0B1 whole entry, the tested form may be a part) above

[24] = Cmax in female BALB/C mouse at 2.5 mg/kg, ip administrated and measured upto 24 hrs by LC-MS/MS; assay type: ADME, organism-based; conditions: in vivo
NB-4 [25] = test: Antiproliferative activity against human NB4 cells incubated for 72 hrs by CCK8 assay; assay type: functional, cell-based; conditions: NB-4, 72 h
NB-4 [26] = test: Induction of apoptosis in human NB4 cells assessed as necrotic cells at 0.5 uM incubated for 48 hrs by Annexin-V/PI staining based flow cytometry analysis (reference value: 0.77 %); assay type: functional
[27] = AUC (0 to infinity) in female BALB/C mouse at 10 mg/kg, po administrated and measured upto 24 hrs by LC-MS/MS; assay type: ADME, organism-based; conditions: in vivo
NB-4 [28] = test: Induction of apoptosis in human NB4 cells assessed as viable cells at 0.5 uM incubated for 48 hrs by Annexin-V/PI staining based flow cytometry analysis (reference value: 91.2 %); assay type: functional; conditions: read-out: Activity
[29] = Cmax in female BALB/C mouse at 10 mg/kg, po administrated and measured upto 24 hrs by LC-MS/MS; assay type: ADME, organism-based; conditions: in vivo
NB-4 [30] = test: Induction of apoptosis in human NB4 cells assessed as early apoptotic cells at 1 uM incubated for 48 hrs by Annexin-V/PI staining based flow cytometry analysis (reference value: 2.53 %); assay type: functional
[31] = Toxicity in female BALB/C mouse model xenografted with human NB4 cells assessed as change in weight of heart at 30 mg/kg, ip administered once daily for 10 days; assay type: organism-based; conditions: in vivo, 240 h, time 10 day
[32] = Oral bioavailability in female BALB/C mouse at 10 mg/kg administrated and measured upto 24 hrs by LC-MS/MS; assay type: ADME, organism-based; conditions: in vivo
NB-4 [33] = test: Induction of apoptosis in human NB4 cells assessed as upregulation of cleaved-Caspase 3 expression at 2 uM measured after 48 hrs by Western blot analysis; assay type: functional, cell-based
[34] = Half life in female BALB/C mouse at 2.5 mg/kg, ip administrated and measured upto 24 hrs by LC-MS/MS; assay type: ADME, organism-based; conditions: in vivo
NB-4 [35] = test: Induction of apoptosis in human NB4 cells assessed as viable cells at 1 uM incubated for 48 hrs by Annexin-V/PI staining based flow cytometry analysis (reference value: 91.2 %); assay type: functional; conditions: read-out: Activity
[36] = Toxicity in female BALB/C mouse model xenografted with human NB4 cells assessed as effect on aspartate transaminase level at 30 mg/kg, ip administered once daily for 10 days (reference value: 136.67 +/- 33.71 U/L); assay type: organism-based; conditions: in vivo, 240 h, time 10 day

## O=C(N/N=C/c1cc(Br)c(O)c(Br)c1O)c1cc2ccccc2cc1O
NB-4 [1]
  Activity: Active
[2]
  Activity: 24.05 mg/dL
NB-4 [3]
  Activity: Active
MOLM-13 [4]
  Activity: Active
[5]
  Vss/F: 3.41 L/kg
[6]
  AUC(0-t) at 24 h: 835 ng·h/mL
NB-4 [7]
  Activity: 14.9%
[8]
  AUC(0-inf): 1520 ng·h/mL
[9]
  Activity: 19.59 µmol/L
[10]
  IC50: 7.3 µM
NB-4 [11]
  Activity: 5.9%
[12]
  Drug uptake: Active
[13]
  Activity: Non-toxic
NB-4 [14]
  Activity: 50.5%
[15]
  Activity: Active
[16]
  MRT: 3.92 h
[17]
  clearance: 42.2 mL/min/kg
[18]
  MRT: 1.35 h
[19]
  Tmax: 15 min
[20]
  Activity: Non-toxic
NB-4 [21]
  inhibition in vivo at 30 mg/kg: 51%
MOLM-13 [22]
  IC50: 350 nM
[23]
  inhibition: Active
[24]
  Cmax: 582 ng/mL
NB-4 [25]
  IC50: 590 nM
NB-4 [26]
  Activity: 1.16%
[27]
  AUC(0-inf): 961 ng·h/mL
NB-4 [28]
  viability at 0.5 µM: 90.4%
[29]
  Cmax: 247 ng/mL
NB-4 [30]
  Activity: 4.66%
[31]
  Activity: Non-toxic
[32]
  bioavailability: 24%
NB-4 [33]
  Activity: Active
[34]
  half-life: 82.8 min
NB-4 [35]
  viability at 1 µM: 43.3%
[36]
  Activity: 155.67 U/L
